Counter-ions that a name gives are not always drawn.
Tests used:
healthy volunteers [1] = test: Continuous arterial spin labeling (CASL) perfusion MRI of regional cerebral blood flow (rCBF); format: in vivo, human; conditions: for increase in rCBF: anterior cingulate cluster
Procedure: (§1) A double blind, placebo controlled study was conducted in 19 healthy volunteers to investigate the role of NMDA receptor NR2B subunit selective antagonism on cognitive functions and neurophysiology as measured with magnetic resonance imaging (MRI). This study utilized functional MRI to determine changes in regional cerebral blood flow (rCBF) and the putative modulation of neural networks during performance of cognitive tasks by the subjects after they were administered the bis HCl salt of compound of formula (I).
The 19 healthy male volunteers who participated in this study were scanned using functional magnetic resonance imaging (fMRI) whilst performing cognitive tasks (including the PAL task described below in more detail) designed to measure associative learning, sustained attention, and episodic memory. These tasks were repeated on three study days two hours prior to the fMRI session. On these three separate occasions, the participants received a capsule containing either placebo (microcrystalline cellulose), 8 mg, or 15 mg of the bis HCl salt of compound of formula (I) such that all treatments were given to all participants. During the fMRI session, the tasks were presented in a randomized order to each subject; however, the order assigned was then maintained across all three study sessions. Additional practice on the tasks was offered to the participants before entering the scanner, and the instructions were repeated prior to each task being performed whilst in the scanner.
Images were acquired on a 1.5T GE Excite HDx system (General Electric, Milwaukee, Wis.). For all tasks a gradient-echo EPI sequence was used with TE=40 ms, FOV=24 cm, and in-plane resolution of 3.75 mm^2 (matrix=64^2). Thirty-eight axial slices with thickness 3 mm (0.3 mm gap) approximately parallel to the AC/PC line were obtained. For the paired associates learning task TR=3000 ms. In addition, a high-resolution image was acquired using single shot EPI with TR=3000 ms, TE=40 ms, FOV=24 cm, 3 mm slice thickness with 0.3 mm gap, matrix=128^2, and 43 slices. This image was used to determine coregistration parameters.
Whole-brain resting perfusion images were acquired with a continuous arterial spin labeling (CASL) sequence consisting of a pseudo-continuous flow-driven, adiabatic inversion scheme and a continuous 3D fast spin echo (FSE) sequence with an interleaved stack of variable density spirals acquisition (Alsop and Detre (1998) Multisection cerebral blood flow MR imaging with continuous arterial spin labeling. Radiology 208: 410-6). CASL perfusion images are able to delineate grey and white matter and provide high resolution quantification of rCBF across the whole brain. Because of the genuine 3-dimensional encoding and readout of this multi-shot technique, and the refocusing of magnetic susceptibility induced signal distortions, the maps of whole brain rCBF obtainable with this technique are of good image quality and exquisite spatial resolution.
For the perfusion images, brain volumes were first normalized into a standard anatomical space (International Consortium on Brain Mapping—ICBM), using affine registration and non-linear transformations. Normalization utilized a single image to which all three CASL sessions were coregistered in order to reduce the likelihood of preprocessing-dependent differences between the drug and placebo session images. All images were spatially smoothed using a Gaussian kernel full-width at half-maximum filter of 6×6×6 mm to improve signal-to-noise ratio and allow for inherent functional and gyral variability across participants.
Image preprocessing and analysis were carried out using Statistical Parametric Mapping software developed by the Functional Imaging Laboratory, UCL, (SPM v5.0, www.fillon.ucl.ac.ulc/spm/)., running under Matlab 7.0.1, and a blood oxygen level dependency (BOLD) was determined. BOLD changes to cognitive tasks represent changes of neuronal activities of respective brain areas.

[2] = system: healthy young and elderly subjects; test: Double-blind, placebo-controlled, single and multiple oral dose safety and tolerability study; format: in vivo, human
Procedure: A double-blind, placebo-controlled, randomized, single, and multiple oral dose study was conducted in order to determine safety and tolerability of the bis HCl salt of compound of formula (I) in healthy young and elderly subjects. The study was conducted in two parts.
Part 1 comprised an ascending single dose, sequential group study in 48 young male subjects, incorporating a two-period crossover arm to investigate the effect of food. Part 2 comprised an ascending multiple dose, sequential group study in 24 young male subjects and an ascending single and multiple dose, sequential group study in 18 elderly subjects (10 males and 8 females) subjects. On each dosing occasion, the subjects received a single capsule containing the appropriate amount of either the bis HCl salt of compound of formula (I) or microcrystalline cellulose. Treatments were administered orally with 240 ml water while the subjects were in a standing position.
The condition of each subject was monitored throughout the study. In addition, any signs and symptoms were observed and elicited at least once a day by open questioning, such as “How have you been feeling since you were last asked?” Subjects were also encouraged to report spontaneously any adverse events during the study.
Any adverse events or remedial actions were recorded. The nature, time of onset, duration, and severity were documented. Any clinically significant abnormalities found during the course of the study were followed up until they returned to normal or could be clinically explained.
A serious adverse event is defined as any untoward medical occurrence that at any dose either results in death, is life-threatening, requires inpatient hospitalization, or prolongs existing hospitalization, results in persistent or significant disability/incapacity, and/or results in a congenital anomaly/birth defect.
Important medical events that may not result in death, be life-threatening, or require hospitalization may be considered to be serious adverse events when, based upon appropriate medical judgment, they may jeopardize the subject or may require medical or surgical intervention to prevent one of the above-described outcomes.

healthy volunteers [3] = test: fMRI (BOLD) during Paired Associates Learning (PAL) task; format: in vivo, human
Procedure: as §1
The 19 healthy male volunteers who participated in this study were scanned using functional magnetic resonance imaging (fMRI) whilst performing cognitive tasks (including the PAL task described below in more detail) designed to measure associative learning, sustained attention, and episodic memory. These tasks were repeated on three study days two hours prior to the fMRI session. […]
Image preprocessing and analysis were carried out using Statistical Parametric Mapping software developed by the Functional Imaging Laboratory, UCL, (SPM v5.0, www.fillon.ucl.ac.ulc/spm/)., running under Matlab 7.0.1, and a blood oxygen level dependency (BOLD) was determined. […]

[4] = target: NR2B subtype of the NMDA receptor (Homo sapiens, UniProt Q05586+Q13224); test: Receptor occupancy estimated by extrapolation from CSF concentrations; format: in vivo; conditions: daily dose of 8 mg; extrapolated from CSF concentrations; compared with therapeutic dosages of memantine
NR2B subtype of the NMDA receptor, sequence (Q13224 27-1484, other chains not shown): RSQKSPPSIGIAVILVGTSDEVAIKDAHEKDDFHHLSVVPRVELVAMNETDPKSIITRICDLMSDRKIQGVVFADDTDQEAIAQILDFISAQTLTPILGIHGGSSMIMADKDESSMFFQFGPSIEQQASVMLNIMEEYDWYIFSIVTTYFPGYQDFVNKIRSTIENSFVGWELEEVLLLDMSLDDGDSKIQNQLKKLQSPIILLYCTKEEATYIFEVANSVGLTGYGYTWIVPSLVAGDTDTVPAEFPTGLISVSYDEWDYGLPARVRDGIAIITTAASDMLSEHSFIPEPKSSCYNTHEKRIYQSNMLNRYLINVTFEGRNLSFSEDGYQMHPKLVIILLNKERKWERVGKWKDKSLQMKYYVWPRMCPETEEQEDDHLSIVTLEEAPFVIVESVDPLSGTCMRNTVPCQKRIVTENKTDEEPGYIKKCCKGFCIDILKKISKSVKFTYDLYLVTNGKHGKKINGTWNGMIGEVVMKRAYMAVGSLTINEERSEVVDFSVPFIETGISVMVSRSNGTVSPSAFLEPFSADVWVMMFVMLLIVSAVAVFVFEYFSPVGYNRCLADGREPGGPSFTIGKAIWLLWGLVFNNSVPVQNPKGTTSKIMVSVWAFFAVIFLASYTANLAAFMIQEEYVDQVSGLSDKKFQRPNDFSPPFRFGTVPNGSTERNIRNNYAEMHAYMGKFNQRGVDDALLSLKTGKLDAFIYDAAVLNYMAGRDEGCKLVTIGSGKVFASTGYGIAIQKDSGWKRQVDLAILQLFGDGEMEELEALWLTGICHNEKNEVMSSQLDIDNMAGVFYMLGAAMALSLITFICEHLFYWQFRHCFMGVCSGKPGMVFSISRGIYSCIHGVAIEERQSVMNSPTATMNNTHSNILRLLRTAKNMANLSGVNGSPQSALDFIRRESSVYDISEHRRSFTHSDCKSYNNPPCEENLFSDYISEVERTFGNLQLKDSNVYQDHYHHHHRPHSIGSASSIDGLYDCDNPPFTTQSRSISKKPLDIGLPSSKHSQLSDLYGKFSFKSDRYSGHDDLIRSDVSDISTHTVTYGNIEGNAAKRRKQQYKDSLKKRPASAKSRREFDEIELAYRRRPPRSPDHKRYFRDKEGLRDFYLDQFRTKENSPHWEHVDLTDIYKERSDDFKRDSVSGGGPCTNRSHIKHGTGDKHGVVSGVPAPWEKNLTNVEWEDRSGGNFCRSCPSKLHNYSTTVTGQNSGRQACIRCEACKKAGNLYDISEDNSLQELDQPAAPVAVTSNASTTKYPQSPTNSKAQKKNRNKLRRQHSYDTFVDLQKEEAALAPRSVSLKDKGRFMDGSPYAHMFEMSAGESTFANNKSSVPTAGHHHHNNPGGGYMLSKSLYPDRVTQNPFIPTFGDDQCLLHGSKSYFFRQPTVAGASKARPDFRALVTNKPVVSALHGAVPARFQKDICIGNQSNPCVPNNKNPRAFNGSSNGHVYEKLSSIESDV
Procedure: CSF samples were stored immediately in an upright position at a temperature of −70° C. or below until shipment. Compound of formula (I) concentrations were measured by a specific and validated LC-MS-MS method. […] Such concentrations in the CSF have been extrapolated to estimate the extent of occupancy of the NR2B subtype of the NMDA receptor.

[5] = Cerebrospinal fluid (CSF) penetration by lumbar puncture, LC-MS-MS; format: in vivo, human; conditions: 8 mg daily for 8 days, six healthy subjects, 3 to 4 hours after dosing on day 8
Procedure: One lumbar puncture per subject was performed on day 8 of treatment (daily dose of 8 mg of bis HCl salt of the compound of formula (I)), in the timeframe of 3 to 4 hours after dosing.
All care was taken to avoid contamination of the collected CSF sample with blood. Thus, only clear CSF was collected, after blood-contaminated liquid has left the cannula. Bloody taps were discarded.
Samples were aliquoted per time point for the measurement of compound of formula (I) as follows: a 0.5 ml CSF sample was aliquoted in empty dry polypropylene tubes from the ≈5 ml CSF collected at each scheduled time point.
CSF samples were stored immediately in an upright position at a temperature of −70° C. or below until shipment. Compound of formula (I) concentrations were measured by a specific and validated LC-MS-MS method. Cerebrospinal fluid (CSF) penetration has been assessed in six healthy subjects receiving 8 mg of bis HCl salt of compound of formula (I) daily for 8 days. […] Such concentrations in the CSF have been extrapolated to estimate the extent of occupancy of the NR2B subtype of the NMDA receptor. […] The selectivity of the compound of formula (I) and salts thereof in combination with the good penetration of the blood brain barrier at well-tolerated dosages according to the present invention provides a therapeutic advantage.

[6] = throughout the study, young and elderly subjects

Row | Structure (SMILES) | decreases in rCBF (healthy volunteers [1]; 8 mg and 15 mg oral) | areas of increased/decreased perfusion (healthy volunteers [1]; 8 mg oral vs placebo) | increase in rCBF (healthy volunteers [1]; 8 mg oral) [%] | rCBF, direct comparison with placebo (healthy volunteers [1]; 15 mg oral, anterior cingulate) | increase in rCBF (healthy volunteers [1]; 15 mg oral) [%] | rCBF normalized to global signal, main effect of drug (healthy volunteers [1]; averaged over 8 mg and 15 mg vs placebo, genu of the anterior cingulate cortex) | dose response relationship of perfusion between 8 mg and 15 mg (healthy volunteers [1]; formal comparison across the entire brain volume, ignoring placebo) | global perfusion (whole brain) (healthy volunteers [1]; placebo, 8 mg and 15 mg oral, CASL perfusion maps) | regional effects on absolute perfusion (healthy volunteers [1]; placebo, 8 mg and 15 mg, threshold p=0.05 corrected across whole brain) | tolerability ([2]; elderly males and females, multiple oral doses (over 8 days) of up to 3 mg twice daily) | tolerability ([2]; elderly males and females, single oral doses of up to 4 mg) | vital signs and electrocardiogram (ECG) parameters ([2]; following single or multiple dosing in young or elderly subjects) | incidence of adverse events [2, 6] | serious or severe adverse events [2, 6] | tolerability ([2]; young males, multiple oral doses (over 8 days) of up to 8 mg once daily) | tolerability ([2]; young males, single oral doses of up to 15 mg (including 2, 5 and 10 mg)) | functional performance of subjects in PAL (healthy volunteers [3]; 8 mg and 15 mg oral, healthy young subjects) | BOLD signal during retrieval in memory retrieval network (healthy volunteers [3]; placebo, 8 mg, 15 mg oral, PAL task, preliminary analysis) | receptor occupancy [4] | CSF concentration relative to plasma concentration [5]
1 | Cc1nccn1Cc1cc(-c2ccc(F)c(C(F)F)c2)cnn1 [bis HCl salt of compound of formula (I), 5-(3-difluoromethyl-4-fluoro-phenyl)-3-(2-methyl-imidazol-1-yl-methyl)-pyridazine] | no clusters of voxels showing significant decreases in rCBF | No statistically significant changes | 17.5 | highly significant cluster of increased rCBF | 17.9 | increased signal | No changes were seen | no difference across the three conditions studied | no significant clusters where signal differed | very well tolerated | very well tolerated | no apparent trends | low incidence of mainly mild adverse events | no serious or severe adverse events | very well tolerated | very well tolerated | unaffected | dose dependent increases in BOLD signal | – | –
2 | Cc1nccn1Cc1cc(-c2ccc(F)c(C(F)F)c2)cnn1 [compound of formula (I), 5-(3-difluoromethyl-4-fluoro-phenyl)-3-(2-methyl-imidazol-1-yl-methyl)-pyridazine] | – | – | – | – | – | – | – | – | – | – | – | – | – | – | – | – | – | – | greater than that, which corresponds to currently used therapeutic dosages of memantine | largely corresponds to the free (unbound) plasma concentrations

— patent publication US20110053951A1, “METHODS FOR TREATING DISORDERS USING NMDA NR2B-SUBTYPE SELECTIVE ANTAGONIST” (EVOTEC NEUROSCIENCES GMBH, priority 2008, published 2011)
